Source: patent publication US5618813A, “Benzo[5.6]pyrano[2.3.4-ij]quinolizine and benzo[5.6]thiopyrano[2.3.4-ij]quinolizine derivatives as antibacterial and antineoplastic agents” (Abbott Laboratories, priority 1995, dated 1997)
Values after ≈ are worked out from the molar mass of the structure shown. Structures can show the parent of a compound that is named as a salt. Where two headings read alike, the source gives them in different places.

Columns and labels:
Test in all cases: In vitro antibacterial activity (MIC, agar dilution)
Assay type in all cases: cell-based
[1] = test system: Staph. aureus 1775 Cipro.R.; details: Staphylococcus aureus
Protocol: (§1) Each plate was inoculated with 1:100 (or 1:10 for slow-growing strains, primarily Micrococcus and Streptococcus) dilutions of up to 32 different microorganisms, using a Steers replicator block calibrated to deliver approximately 10^4 colony forming units (CFUs). The inoculated plates were incubated at from about 35° C. to about 37° C. for approximately 20-24 hours. In o addition, a control plate using BHI agar containing no test compound was prepared and incubated at the beginning and at the end of each test. The quinolone antibacterial ciprofloxacin was used as a control ("Cntl").
(§2) The MIC was defined as the lowest concentration of test compound yielding no growth (a slight haze or sparsely isolated colonies at the inoculum spot) as compared to the growth control containing no test compound.

P. aeruginosa K799/61 = details: Pseudomonas aeruginosa
Protocol: as §1, §2

[2] = test system: Enter. aerogenes ATCC 13048; details: Klebsiella aerogenes, ATCC13048
Protocol: as §1, §2

E. coli KNK 437 = details: Escherichia coli, KNK437
Protocol: as §1, §2

Staph. aureus ATCC 6538P = details: Staphylococcus aureus, ATCC6538P
Protocol: as §1, §2

E. coli SS = details: Escherichia coli
Protocol: as §1, §2

Strep. bovis A5169 = details: Streptococcus equinus
Protocol: as §1, §2

[3] = test system: Providencia stuartii CMX 640; details: CMX640
Protocol: as §1, §2

P. aeruginosa K799/WT = details: Pseudomonas aeruginosa
Protocol: as §1, §2

Pseudomonas cepacia 296I = details: Burkholderia cepacia
Protocol: as §1, §2

[4] = test system: Nocardia asteroides ATCC 9970; details: Nocardia asteroides, ATCC9970
Protocol: as §1, §2

Candida albicans CCH 442 = details: CCH442
Protocol: as §1, §2

Staph. aureus NCTC10649 = details: Staphylococcus aureus
Protocol: as §1, §2

M. luteus ATCC 9341 = details: Micrococcus luteus, ATCC9341
Protocol: as §1, §2

[5] = test system: Strep. pyogenes 930 CONST; details: Streptococcus pyogenes
Protocol: as §1, §2

Staph. aureus CMX 553 = details: Staphylococcus aureus, CMX553
Protocol: as §1, §2

E. coli H560 = details: Escherichia coli
Protocol: as §1, §2

[6] = test system: Entero. faecium ATCC 8043; details: Enterococcus faecium, ATCC8043
Protocol: as §1, §2

Staph. epidermidis 3519 = details: Staphylococcus epidermidis
Protocol: as §1, §2

Staph. aureus A5177 = details: Staphylococcus aureus
Protocol: as §1, §2

Staph. aureus 642A = details: Staphylococcus aureus
Protocol: as §1, §2

P. aeruginosa BMH 10 = details: Pseudomonas aeruginosa, BMH10
Protocol: as §1, §2

Escherichia coli Juhl = test system: Escherichia coli Juhl
Protocol: as §1, §2

P. aeruginosa A5007 = details: Pseudomonas aeruginosa
Protocol: as §1, §2

Strep. pyogenes EES61 = details: Streptococcus pyogenes
Protocol: as §1, §2

P. aeruginosa 5263 = details: Pseudomonas aeruginosa
Protocol: as §1, §2

M. luteus ATCC 4698 = details: Micrococcus luteus, ATCC4698
Protocol: as §1, §2

E. coli DC-2 = details: Escherichia coli, DC2
Protocol: as §1, §2

Myco. smegmatis ATCC 114 = details: Mycolicibacterium smegmatis, ATCC114
Protocol: as §1, §2

P. aeruginosa 2862 = details: Pseudomonas aeruginosa
Protocol: as §1, §2

[7] = test system: Acinetobacter calcoaceticus CMX 669; details: CMX669
Protocol: as §1, §2

[8] = test system: Klebsiella pneumoniae ATCC 8045; details: Klebsiella pneumoniae, ATCC8045
Protocol: as §1, §2

[9] = test system: Strep. pyogenes 2458 INDUC; details: Streptococcus pyogenes
Protocol: as §1, §2

[10] = test system: Strep. agalactiae CMX 508; details: Streptococcus agalactiae, CMX508
Protocol: as §1, §2

Staph. aureus 5278 = details: Staphylococcus aureus
Protocol: as §1, §2

[11] = E. coli KNK 437, agar dilution, read-out: MIC
[12] = E. coli SS, agar dilution, read-out: MIC
[13] = Strep. bovis A5169, agar dilution, read-out: MIC
[14] = P. aeruginosa K799/WT, agar dilution, read-out: MIC
[15] = M. luteus ATCC 9341, agar dilution, read-out: MIC
[16] = E. coli H560, agar dilution, read-out: MIC
[17] = P. aeruginosa BMH 10, agar dilution, read-out: MIC
[18] = P. aeruginosa A5007, agar dilution, read-out: MIC
[19] = P. aeruginosa 5263, agar dilution, read-out: MIC
[20] = M. luteus ATCC 4698, agar dilution, read-out: MIC
[21] = E. coli DC-2, agar dilution, read-out: MIC
[22] = P. aeruginosa 2862, agar dilution, read-out: MIC
[23] = Acinetobacter calcoaceticus CMX 669, agar dilution, read-out: MIC
[24] = Entero. faecium ATCC 8043, agar dilution, read-out: MIC

| Structure (SMILES) | MIC [1] | MIC (P. aeruginosa K799/61) | MIC [2] | MIC (E. coli KNK 437; [11]) | MIC (Staph. aureus ATCC 6538P) | MIC (E. coli SS; [12]) | MIC [3] | MIC (Pseudomonas cepacia 296I) | MIC (Staph. aureus NCTC10649) | MIC [5] | MIC (Staph. aureus CMX 553) | MIC (Staph. epidermidis 3519) | MIC (Staph. aureus A5177) | MIC (Staph. aureus 642A) | MIC (Escherichia coli Juhl) | MIC (Strep. pyogenes EES61) | MIC [8] | MIC [9] | MIC [10] | MIC (Staph. aureus 5278) | further results |
| --- | --- | --- | --- | --- | --- | --- | --- | --- | --- | --- | --- | --- | --- | --- | --- | --- | --- | --- | --- | --- | --- |
| N[C@H]1CCC[C@H]2CN(c3c(F)cn4c(=O)c(C(=O)O)cc5c4c3Oc3ccccc3-5)C[C@H]21 (relative stereo) [Example 3, 1-(3aα, 4β, 7aα-4-aminooctahydro-[1H]-isoindol-2-yl)-2-fluoro-5H-5-oxo-benzo[5.6]pyrano[2.3.4-ij]quinolizine-6-carboxylic acid hydrochloride] | 3.1 µg/mL | 1.56 µg/mL | 25 µg/mL | 25 µg/mL | 0.78 µg/mL | 0.78 µg/mL | 100 µg/mL | > 100 µg/mL | 0.78 µg/mL | 0.2 µg/mL | 0.78 µg/mL | 0.78 µg/mL | 0.78 µg/mL | 0.78 µg/mL | 6.2 µg/mL | 0.39 µg/mL | 1.56 µg/mL | 0.39 µg/mL | 0.39 µg/mL | 0.78 µg/mL | MIC (Strep. bovis A5169; [13]): 0.39 µg/mL; MIC (P. aeruginosa K799/WT; [14]): > 100 µg/mL; MIC [4]: 1.56 µg/mL; MIC (Candida albicans CCH 442; Candida albicans CCH 442, agar dilution, read-out: MIC): > 100 µg/mL; MIC (M. luteus ATCC 9341; [15]): 0.39 µg/mL; MIC (E. coli H560; [16]): 6.2 µg/mL; MIC [6]: 1.56 µg/mL; MIC (P. aeruginosa BMH 10; [17]): 100 µg/mL; MIC (P. aeruginosa A5007; [18]): > 100 µg/mL; MIC (P. aeruginosa 5263; [19]): > 100 µg/mL; MIC (M. luteus ATCC 4698; [20]): 0.78 µg/mL; MIC (E. coli DC-2; [21]): 100 µg/mL; MIC (Myco. smegmatis ATCC 114): 0.78 µg/mL; MIC (P. aeruginosa 2862; [22]): > 100 µg/mL; MIC [7, 23]: 12.5 µg/mL |
| O=C(O)c1cn(C2CC2)c2cc(N3CCNCC3)c(F)cc2c1=O [Ciprofloxacin, ciprofloxacin, reference compound] | > 100 µg/mL | 0.02 µg/mL (≈ 0.0604 µM) | 0.02 µg/mL (≈ 0.0604 µM) |  | 0.2 µg/mL (≈ 0.604 µM) |  | 0.78 µg/mL (≈ 2.35 µM) | 3.1 µg/mL (≈ 9.36 µM) | 0.39 µg/mL (≈ 1.18 µM) | 0.78 µg/mL (≈ 2.35 µM) | 0.78 µg/mL (≈ 2.35 µM) | 0.39 µg/mL (≈ 1.18 µM) | 0.39 µg/mL (≈ 1.18 µM) | 0.39 µg/mL (≈ 1.18 µM) | 0.01 µg/mL (≈ 0.0302 µM) | 0.78 µg/mL (≈ 2.35 µM) | 0.02 µg/mL (≈ 0.0604 µM) | 0.39 µg/mL (≈ 1.18 µM) | 0.39 µg/mL (≈ 1.18 µM) | 0.39 µg/mL (≈ 1.18 µM) | MIC (E. coli KNK 437): 0.2 µg/mL (≈ 0.604 µM); MIC (E. coli SS): 0.005 µg/mL (≈ 0.0151 µM); MIC (Strep. bovis A5169; A5169): 1.56 µg/mL (≈ 4.71 µM); MIC (P. aeruginosa K799/WT; K799/WT): 0.1 µg/mL (≈ 0.302 µM); MIC [4]: 12.5 µg/mL (≈ 37.7 µM); MIC (Candida albicans CCH 442; Candida albicans): > 100 µg/mL; MIC (M. luteus ATCC 9341): 1.56 µg/mL (≈ 4.71 µM); MIC (E. coli H560; H560): 0.01 µg/mL (≈ 0.0302 µM); MIC [6, 24]: 0.39 µg/mL (≈ 1.18 µM); MIC (P. aeruginosa BMH 10): 0.1 µg/mL (≈ 0.302 µM); MIC (P. aeruginosa A5007; A5007): 0.1 µg/mL (≈ 0.302 µM); MIC (P. aeruginosa 5263; 5263): 12.5 µg/mL (≈ 37.7 µM); MIC (M. luteus ATCC 4698): 0.78 µg/mL (≈ 2.35 µM); MIC (E. coli DC-2): 0.2 µg/mL (≈ 0.604 µM); MIC (Myco. smegmatis ATCC 114): 0.78 µg/mL (≈ 2.35 µM); MIC (P. aeruginosa 2862; 2862): 12.5 µg/mL (≈ 37.7 µM); MIC ([7]; Acinetobacter calcoaceticus): 0.39 µg/mL (≈ 1.18 µM) |
| O=C(O)c1cc2c3c(c(N4CCOCC4)c(F)cn3c1=O)Oc1ccccc1-2 [Example 1, 1-(1-morpholinyl)-2-fluoro-5H-5-oxo-benzo[5.6]pyrano[2,3.4-ij]quinolizine-6-carboxylic acid] | 1.56 µg/mL (≈ 4.08 µM) | 12.5 µg/mL (≈ 32.7 µM) | > 100 µg/mL | 50 µg/mL (≈ 131 µM) | 0.78 µg/mL (≈ 2.04 µM) | 0.39 µg/mL (≈ 1.02 µM) | > 100 µg/mL | 100 µg/mL (≈ 262 µM) | 0.39 µg/mL (≈ 1.02 µM) | 6.2 µg/mL (≈ 16.2 µM) | 0.78 µg/mL (≈ 2.04 µM) | 0.39 µg/mL (≈ 1.02 µM) | 0.78 µg/mL (≈ 2.04 µM) | 0.78 µg/mL (≈ 2.04 µM) | > 100 µg/mL | 3.1 µg/mL (≈ 8.11 µM) | 12.5 µg/mL (≈ 32.7 µM) | 6.2 µg/mL (≈ 16.2 µM) | 3.1 µg/mL (≈ 8.11 µM) | 0.78 µg/mL (≈ 2.04 µM) | MIC (Strep. bovis A5169; [13]): 25 µg/mL (≈ 65.4 µM); MIC (P. aeruginosa K799/WT; [14]): > 100 µg/mL; MIC (M. luteus ATCC 9341; [15]): 1.56 µg/mL (≈ 4.08 µM); MIC (E. coli H560; [16]): > 100 µg/mL; MIC [6, 24]: 25 µg/mL (≈ 65.4 µM); MIC (P. aeruginosa BMH 10; [17]): > 100 µg/mL; MIC (P. aeruginosa A5007; [18]): > 100 µg/mL; MIC (P. aeruginosa 5263; [19]): > 100 µg/mL; MIC (M. luteus ATCC 4698; [20]): 0.39 µg/mL (≈ 1.02 µM); MIC (E. coli DC-2; [21]): > 100 µg/mL; MIC (P. aeruginosa 2862; [22]): > 100 µg/mL; MIC [7, 23]: 1.56 µg/mL (≈ 4.08 µM) |
